Test results as given in patent publication US20060167229A1, “Biologically active peptide conjugates” (priority 2002, published 2006).
Marks after values point to notes of the source that are not given here. Ends that are not written are not given here.

Columns and labels:
B16 melanoma = test: Melanoma lung metastasis foci after inoculation of B16 melanoma cells; format: in vivo, C57BL/6 mice
Method: Intraperitoneal injection, once per day. […] Treatment of all groups with testing substance lasted for 30 days or until the animal died unless otherwise specified. […] The cell concentration was adjusted to 1×10^5 per ml with Hank's solution and 0.1 ml of the cell suspension was injected via the tail vein into the testing mice to generate the B16 melanoma bearing animal model. Treatment with test substance started as described in section Method 1. […] Postmortem Examination of the Animals was Performed. The Pathological Changes were Recorded, and the Numbers of Melanoma Lung Metastasis Foci Were Counted. Results

[1] = test system: Duck Hepatitis B Virus (DHBV); test: Chongqing duck hepatitis B model, serum DHBV DNA by dot-blot hybridization; format: in vivo, Chongqing ducks
Method: Chongqing duck hepatitis B model was set up and treated with peptides by intraperitoneal injection (50 μg/kg/day, once per day) for 4 weeks. The serum level of DHBV DNA was analyzed by serum dot-blot hybridization. Lamivudine and normal saline treatment was used as positive and negative control respectively. […] It is concluded that CMS001 at suitable dosage level can be used as a part, or on its own, for viral hepatitis infection management. One-day old Chongqing ducks were inoculated with 0.1 ml stock serum positive of Duck Hepatitis B Virus (DHBV) DNA (5×10^7 copy/ml) by intraperitoneal injection. One week later, blood samples were collected from the external jugular vein and infection was confirmed by dot-blot hybridization with DHBV DNA probe labeled with digoxin^[2]. The ducks were breed to 2 weeks old for entrance into the study. […] Treatment lasted for 4 weeks and observation continued for another one week after termination of treatment. 1 ml blood samples were drawn from the external jugular vein of the ducks on days 0, 7, 14, 21, 28, and 35 when treatment started. Sera of the blood samples were isolated immediately^[3] and stored at −20° C. until analysis. 4. Serum DHBV DNA Level Determinations DHBV DNA probe was fluorescent labeled according to the labeling kit protocol from the kit manufacturer (Amersham Pharmacia Biotech Co.). 40 μl duck sera were dot-blotted (1 duplicated dot per sample) onto nitro-cellulose membrane and hybridized with fluorescent-labeled DHBV DNA probe for quantitation^[2]. After completion of hybridization, the blots were developed in CDP-Star fluorimetry reagent RPN3690 and scanned with Vuego Scan (Brisa-620st) scanner. ImageMaster TotalLab v1.11.Ink software was used for quantitative analysis of the blots. Statistical analysis was carried out according to the pair t-test with SPSS software.

mononuclear phagocyte = test: Phagocytotic function of mononuclear phagocyte in mice with transplanted S180 sarcoma; format: in vivo, BALB/c mice; settings: saline 5.38 ± 0.85
Method: (§1) Intraperitoneal injection, once per day. […] Treatment of all groups with testing substance lasted for 30 days or until the animal died unless otherwise specified.
Stock S180 sarcoma cells were incubated in DMEM/F12 medium supplemented with 10% fetal bovine serum, 37° C., 5% CO2 for 72 hrs, then washed 3-4 times with Hank's solution at room temperature. Adjust the cell concentration to 1-2×10^9 per litre with Hank's solution. […] The mice were killed by cervical vertebra dislocation. Vigorously growing and non-disrupted tumor masses were harvested and washed clean with sterile saline. The tissue was dispersed in saline to a homogenous cell suspension, in a ratio of 1 g tissue to 4 ml saline. The sarcoma bearing mice model was prepared with an injection of 0.2 ml cell suspension through the armpit. Administration of test substance treatment started as described in section Method 1.
2.1 The effect of peptides on the phagocytotic function of mononuclear phagocyte in mice with S180 sarcoma was analysed by injecting mice from the tail vein with 0.1 ml/10 g body weight of Indian ink (1:5 dilution with normal saline) on the second day after the last test substance administration. At one minute and five minutes after the injection, 20 μl blood was obtained from the eye canthus with heparinised tubing. The blood was mixed with 2 ml 0.1% w/v Na2CO3 and then OD680 nm obtained. The outline clear index K was calculated by the following formula: K=(lgA1−lgA2)÷(t2−t1)
After the phagocytosis index study, the mice were killed by cervical vertebra dislocation. The liver, spleen, and cancer tissue were dissected, blotted dry, and weighed. The phagocytosis index a was calculated as below: α=(^3√{square root over ( )}K)×(W÷WLS)

L1210 leukemia = test: Survival of mice with transplanted L1210 leukemia; format: in vivo, DBA/2 mice; settings: for Survival days: saline 16.6 ± 5.6
Method: as §1
Stock L1210 cells were incubated in DMEM/F12 medium supplemented with 10% fetal bovine serum, 37° C./5% CO2 for 72 hrs, then washed 3-4 times with Hank's solution, and adjusted to […]. 0.1 ml of the cell suspension was implanted into the abdominal cavity of several healthy DBA mice for 6-8 days. The mice were then killed by cervical vertebra dislocation and their ascitic fluid collected aseptically. The cell concentration of the collected ascitic fluid was adjusted to 1×10^5 per ml with Hank's solution. 0.1 ml of the cell suspension was implanted into each of the testing animal and the survival data of the animals recorded. Treatment started in the testing animals as described in section Method 1. Mean survival day was obtained by the Kaplan-meier method in the Survival option of the SPSS software. If the animal survived longer than the experiment, the survival days was entered as the duration of the experiment. The survival index was calculated according to the following formula: Survival index=(mean survival days of treatment group−mean survival days of control group)÷mean survival days of control group 6. The Effect of Peptides on the Humoral Immunity of C57BL/6 Mice Bearing Transplanted B16 Melanoma and that on the Metastatic Potential of the Inoculated Melanoma Cells

[2] = dose 0.5 μg/kg i.p. once per day
[3] = controls: IL-2, IFN-γ 3 × 10^5 IU/kg, cyclophosphamide 20 mg/kg

Question: With IGMESAGIHETTY [CMS016] as the molecule, how does the “B16 metastatic foci in the lung, postmortem examination” value (B16 melanoma; 5 μg/kg/day) read?
Answer: did not show any sign of existence of B16 metastatic foci in the lung

Question: And the “B16 metastatic foci in the lung, postmortem examination” value (B16 melanoma; 500 μg/kg/day)?
Answer: did not show any sign of existence of B16 metastatic foci in the lung

Question: What does the source list for KAVGHLDDLPGAL [CMS008]?
Answer: B16 metastatic foci in the lung, postmortem examination (B16 melanoma; 0.5 μg/kg/day): did not show any sign of existence of B16 metastatic foci in the lung; B16 metastatic foci in the lung, postmortem examination (B16 melanoma; 5 μg/kg/day): did not show any sign of existence of B16 metastatic foci in the lung; B16 metastatic foci in the lung, postmortem examination (B16 melanoma; 50 μg/kg/day): did not show any sign of existence of B16 metastatic foci in the lung

Question: PTTKTYFPHF [CMS001] was tested. Which “serum DHBV DNA titre upon termination of treatment” value ([1]; 50 μg/kg/day i.p. for 4 weeks, then one week observation) did it give?
Answer: rebounded to a value with no statistical difference from that before treatment

Question: What about the “DHBV DNA level (Mean ± Standard Deviation)” value ([1]; Day 0 (before treatment), CMS001 50 μg/kg/day i.p., lamivudine 50 mg/kg/day oral, saline 26 ± 12) of the same molecule?
Answer: 21 ± 18 10^3 units

Question: What about the “DHBV DNA level (Mean ± Standard Deviation)” value ([1]; Day 7, CMS001 50 μg/kg/day i.p., lamivudine 50 mg/kg/day oral, saline 45 ± 31) of the same molecule?
Answer: 11 ± 13 10^3 units

Question: And the “DHBV DNA level (Mean ± Standard Deviation)” value ([1]; Day 14, CMS001 50 μg/kg/day i.p., lamivudine 50 mg/kg/day oral, saline 49 ± 23)?
Answer: 20 ± 18 10^3 units

Question: What about the “DHBV DNA level (Mean ± Standard Deviation)” value ([1]; Day 21, CMS001 50 μg/kg/day i.p., lamivudine 50 mg/kg/day oral, saline 102 ± 66) of the same molecule?
Answer: 14 ± 14 10^3 units

Question: And the “DHBV DNA level (Mean ± Standard Deviation)” value ([1]; Day 28 (end of 4 weeks treatment), CMS001 50 μg/kg/day i.p., lamivudine 50 mg/kg/day oral, saline 60 ± 38)?
Answer: 5 ± 3* 10^3 units

Question: What about the “DHBV DNA level (Mean ± Standard Deviation)” value ([1]; Day 35 (one week after termination of treatment), saline 50 ± 43) of the same molecule?
Answer: 18 ± 16 10^3 units

Question: And the Phagocytosis index (mononuclear phagocyte; dose 5 μg/kg i.p. once per day)?
Answer: 6.67 ± 0.43*^

Question: What about the Phagocytosis index (mononuclear phagocyte; dose 50 μg/kg i.p. once per day) of the same molecule?
Answer: 6.24 ± 0.33*^

Question: Which “Survival index (%)” value (L1210 leukemia; [2]) does the source give for “Phe Val Asn Asp (FVND; listed as Sus scrofa) [CMS035]” here?
Answer: 76.1%

Question: What about the Survival days (L1210 leukemia; [2]) of the same molecule?
Answer: 29.3 ± 15.4 days

Question: Which results are given for “Pro Gln Asn Phe (PQNF; printed: Pro Gln Asn Phe) [CMS034]”?
Answer: Phagocytosis index (mononuclear phagocyte; [2]): 6.35 ± 1.02; Phagocytosis index (mononuclear phagocyte; dose 5 μg/kg i.p. once per day): 6.20 ± 0.44*^

Question: With VGMGQKDSY as the molecule, how does the “Survival index (%)” value (L1210 leukemia; [2]) read?
Answer: 26.8%

Question: And the Survival days (L1210 leukemia; [2])?
Answer: 21.1 ± 5.8 days

B1: IFN-γ: recombinant mouse IFN-γ (rmIFN-γ), Beijing Biotech Inc.; positive control (protein, UniProt P01580 23-155, looked up)
Interferon gamma: HGTVIESLESLNNYFNSSGIDVEEKSLFLDIWRNWQKDGDMKILQSQIISFYLRLFEVLKDNQAISNNISVIESHLITTFFSNSKAKKDAFMSIAKFEVNNPQVQRQAFNELIRVVHQLLPESSLRKRKRSRC
Question: What does the source list for B1?
Answer: Phagocytosis index (mononuclear phagocyte; [3]): 5.45 ± 0.71; Survival days (L1210 leukemia; [3]): 15.6 ± 2.2 days
